Test results: patent US10577363B2, “Substituted piperidine compounds” (EPIZYME, INC., priority 2014, dated 2020)
pIC50: −log10 of the molar value. Each block holds one molecule with its values, some of them ahead of it.

Experiments:
SMYD3 [1] = molecular target: T1, SMYD3 (Homo sapiens (Human), UniProt Q9H7B4); assay: SMYD3 cell assay (Trimethyl-MEKK2 In-Cell Western in 293T/17 cells); format: cell-based; settings: for IC50: 293T/17 cells, read-out: SMYD3 Cell IC50 (μM)*
Outline: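 In-Cell Western readout: methanol-fixed cells stained for trimethyl-MEKK2 and flag tag, ratio per well normalized to DMSO and background controls.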

SMYD3 [2] = molecular target: T1, SMYD3; assay: SMYD3 biochemical assay (SPA, 3H-SAM methylation of MEKK2 protein substrate); settings: for IC50: read-out: SMYD3 Biochem IC50 (μM)*
Outline: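 Enzyme: untagged full-length human SMYD3 from E. coli; substrate GST-tagged MEKK2 from insect cells. Buffer 25 mM Tris-Cl pH 8.0, 1 mM TCEP, 0.005% BSG/Tween 20. 30 min compound–enzyme preincubation at RT; 3H-SAM/MEKK2 start; stop with cold SAM (100 uM final); SPA readout in cpm.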

[3] = average of n = 1 to n = 50, read-out: SMYD3 Cell IC50
[4] = average of n = 1 to n = 50, read-out: SMYD3 Biochem IC50
[5] = IC50 values are an average of n = 1 to n = 50, read-out: SMYD3 Cell IC50*
[6] = IC50 values are an average of n = 1 to n = 50, read-out: SMYD3 Biochem IC50*
[7] = Table 2A, read-out: SMYD3 Cell IC50
[8] = Table 2A, read-out: SMYD3 Biochem IC50

T1 sequence (Q9H7B4 whole entry): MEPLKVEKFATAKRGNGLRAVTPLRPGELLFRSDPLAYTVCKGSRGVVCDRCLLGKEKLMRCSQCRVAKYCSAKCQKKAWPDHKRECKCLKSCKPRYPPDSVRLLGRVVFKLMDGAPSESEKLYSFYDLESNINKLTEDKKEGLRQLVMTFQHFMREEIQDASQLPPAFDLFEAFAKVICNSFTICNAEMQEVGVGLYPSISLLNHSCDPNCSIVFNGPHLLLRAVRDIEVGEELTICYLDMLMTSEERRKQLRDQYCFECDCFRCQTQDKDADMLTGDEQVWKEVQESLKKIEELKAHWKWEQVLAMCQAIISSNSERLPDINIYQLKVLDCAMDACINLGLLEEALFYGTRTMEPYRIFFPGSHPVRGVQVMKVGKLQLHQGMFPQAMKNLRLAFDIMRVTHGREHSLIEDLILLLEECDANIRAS

Structure (SMILES): CNCCS(=O)(=O)N1[C@@H]2CC[C@H]1C[C@@H](NC(=O)c1cc(C3CC3)on1)C2 [compound 649, 5-cyclopropyl-N-((1R,3r,5S)-8-((2-(methylamino)ethyl)sulfonyl)-8-azabicyclo[3.2.1]octan-3-yl)isoxazole-3-carboxamide]
pIC50 (SMYD3 [1]; [3]): 6.58
pIC50 (SMYD3 [2]; [4]): 7.33

IC50 (SMYD3 [1]): 30.6 µM
IC50 (SMYD3 [2]): 4.29 µM
Structure (SMILES): C[C@H]1C[C@@H](NC(=O)c2cc(C3CC3)on2)CCN1C(=O)c1cccc(C(C)(C)N)c1 [compound 367, N-((2S,4S)-1-(3-(2-aminopropan-2-yl)benzoyl)-2-methylpiperidin-4-yl)-5-cyclopropylisoxazole-3-carboxamide]

Structure (SMILES): O=C(N[C@H]1C[C@H]2CC[C@@H](C1)N2S(=O)(=O)CCCNCCN1CCOCC1)c1cc(C2CC2)on1 [compound 670, 5-cyclopropyl-N-((1R,3r,5S)-8-((3-((2-morpholinoethyl)amino)propyl)sulfonyl)-8-azabicyclo[3.2.1]octan-3-yl)isoxazole-3-carboxamide]
pIC50 (SMYD3 [1]; [3]): 6.05
pIC50 (SMYD3 [2]; [4]): 6.99

Structure (SMILES): O=C(N[C@H]1C[C@H]2CC[C@@H](C1)N2S(=O)(=O)C[C@H]1CCCCN1)c1cc(C2CC2)on1 [compound 971, 5-cyclopropyl-N-((1R,3R,5S)-8-((((R)-piperidin-2-yl)methyl)sulfonyl)-8-azabicyclo[3.2.1]octan-3-yl)isoxazole-3-carboxamide]
pIC50 (SMYD3 [1]; [5]): 6.33
pIC50 (SMYD3 [2]; [6]): 7.04

pIC50 (SMYD3 [1]; [7]): 6.65
pIC50 (SMYD3 [2]; [8]): 7.75
Structure (SMILES): C[C@H]1CN(S(=O)(=O)CC2CCN(CCCO)CC2)CC[C@H]1NC(=O)c1cc(C2CC2)on1 [compound 608, 5-cyclopropyl-N-((3S,4R)-1-(((1-(3-hydroxypropyl)piperidin-4-yl)methyl)sulfonyl)-3-methylpiperidin-4-yl)isoxazole-3-carboxamide]

IC50 (SMYD3 [1]): 2.58 µM
IC50 (SMYD3 [2]): 0.732 µM
Structure (SMILES): C[C@@H]1C[C@H](NC(=O)c2cc(C3CC3)on2)CCN1S(=O)(=O)c1c[nH]cn1 [compound 428, N-((2R,4R)-1-((1H-imidazol-4-yl)sulfonyl)-2-methylpiperidin-4-yl)-5-cyclopropylisoxazole-3-carboxamide]

pIC50 (SMYD3 [1]; read-out: SMYD3 Cell IC50*): 7.15
pIC50 (SMYD3 [2]; read-out: SMYD3 Biochem IC50*): 8.37
Structure (SMILES): CCNC1CCN(S(=O)(=O)N2CC[C@H](NC(=O)c3cc(C4CC4)on3)C[C@@H]2C)CC1 [compound 829, 5-cyclopropyl-N-((2S,4S)-1-((4-(ethylamino)piperidin-1-yl)sulfonyl)-2-methylpiperidin-4-yl)isoxazole-3-carboxamide]

Structure (SMILES): O=C(N[C@H]1C[C@H]2CC[C@@H](C1)N2S(=O)(=O)c1ccc(CNCCO)cc1)c1cc(C2CC2)on1 [compound 946, 5-cyclopropyl-N-((1R,3r,5S)-8-((4-(((2-hydroxyethyl)amino)methyl)phenyl)sulfonyl)-8-azabicyclo[3.2.1]octan-3-yl)isoxazole-3-carboxamide]
pIC50 (SMYD3 [1]; read-out: SMYD3 Cell IC50*): 6.48
pIC50 (SMYD3 [2]; read-out: SMYD3 Biochem IC50*): 7.29

pIC50 (SMYD3 [1]; [5]): 5.95
pIC50 (SMYD3 [2]; [6]): 6.72
Structure (SMILES): C[C@H]1CN(S(=O)(=O)N2CC[C@H](NC(=O)c3cc(C4CC4)on3)C[C@@H]2C)[C@@H](C)CN1 [compound 992, 5-cyclopropyl-N-((2S,4S)-1-(((2S,5S)-2,5-dimethylpiperazin-1-yl)sulfonyl)-2-methylpiperidin-4-yl)isoxazole-3-carboxamide]

pIC50 (SMYD3 [1]; [5]): 5.90
pIC50 (SMYD3 [2]; [6]): 7.03
Structure (SMILES): C[C@H]1C[C@@H](NC(=O)c2cc(C3CC3)on2)CCN1S(=O)(=O)N1CCC(NC(C)(C)c2ccccc2)CC1 [compound 972, 5-cyclopropyl-N-((2S,4S)-2-methyl-1-((4-((2-phenylpropan-2-yl)amino)piperidin-1-yl)sulfonyl)piperidin-4-yl)isoxazole-3-carboxamide]

IC50 (SMYD3 [1]): 10.7 µM
IC50 (SMYD3 [2]): > 10 µM
Structure (SMILES): C[C@H]1C[C@H](NC(=O)c2cc(C3CC3)on2)CCN1S(=O)(=O)c1ccccn1 [compound 286, 5-cyclopropyl-N-((2S,4R)-2-methyl-1-(pyridin-2-ylsulfonyl)piperidin-4-yl)isoxazole-3-carboxamide]

Structure (SMILES): CCC1CNCCN1S(=O)(=O)N1[C@@H]2CC[C@H]1C[C@@H](NC(=O)c1cc(C3CC3)on1)C2 (stereo partly drawn) [compound 902, 5-cyclopropyl-N-((1R,3r,5S)-8-((2-ethylpiperazin-1-yl)sulfonyl)-8-azabicyclo[3.2.1]octan-3-yl)isoxazole-3-carboxamide]
pIC50 (SMYD3 [1]; read-out: SMYD3 Cell IC50*): 6.81
pIC50 (SMYD3 [2]; read-out: SMYD3 Biochem IC50*): 7.82

Structure (SMILES): CCN(C)C1CCN(S(=O)(=O)N2[C@@H]3CC[C@H]2C[C@@H](NC(=O)c2cc(C4CC4)on2)C3)CC1 [compound 852, 5-cyclopropyl-N-((1R,3r,5S)-8-((4-(ethyl(methyl)amino)piperidin-1-yl)sulfonyl)-8-azabicyclo[3.2.1]octan-3-yl)isoxazole-3-carboxamide]
pIC50 (SMYD3 [1]; read-out: SMYD3 Cell IC50*): 6.94
pIC50 (SMYD3 [2]; read-out: SMYD3 Biochem IC50*): 8.19

IC50 (SMYD3 [1]): 0.996 µM
IC50 (SMYD3 [2]): 0.152 µM
Structure (SMILES): C[C@H]1C[C@@H](NC(=O)c2cc(C3CC3)on2)CCN1S(=O)(=O)c1ccccc1 [compound 352, 5-cyclopropyl-N-((2S,4S)-2-methyl-1-(phenylsulfonyl)piperidin-4-yl)isoxazole-3-carboxamide]

pIC50 (SMYD3 [1]; read-out: SMYD3 Cell IC50*): 6.74
pIC50 (SMYD3 [2]; read-out: SMYD3 Biochem IC50*): 8.02
Structure (SMILES): CCN(CC)C1CCN(S(=O)(=O)N2CC[C@H](NC(=O)c3cc(C4CC4)on3)C[C@@H]2C)CC1 [compound 872, 5-cyclopropyl-N-((2S,4S)-1-((4-(diethylamino)piperidin-1-yl)sulfonyl)-2-methylpiperidin-4-yl)isoxazole-3-carboxamide]

IC50 (SMYD3 [1]): > 10 µM
IC50 (SMYD3 [2]): 7.19 µM
Structure (SMILES): CC(C)CNc1ccc(S(=O)(=O)N2CC[C@@H](NC(=O)c3cc(C4CC4)on3)C[C@H]2C)cn1 [compound 453, 5-cyclopropyl-N-((2R,4R)-1-((6-(isobutylamino)pyridin-3-yl)sulfonyl)-2-methylpiperidin-4-yl)isoxazole-3-carboxamide]

Structure (SMILES): CNC1CCN(S(=O)(=O)N2[C@@H]3CC[C@H]2C[C@@H](NC(=O)c2cc(C4CC4)on2)C3)CC1 [compound 812, 5-cyclopropyl-N-((1R,3r,5S)-8-((4-(methylamino)piperidin-1-yl)sulfonyl)-8-azabicyclo[3.2.1]octan-3-yl)isoxazole-3-carboxamide]
pIC50 (SMYD3 [1]; read-out: SMYD3 Cell IC50*): 7.39
pIC50 (SMYD3 [2]; read-out: SMYD3 Biochem IC50*): 8.58

pIC50 (SMYD3 [1]; [3]): 5.97
pIC50 (SMYD3 [2]; [4]): 6.97
Structure (SMILES): C[C@H]1C[C@@H](NC(=O)c2cc(C3CC3)on2)CCN1S(=O)(=O)N(C)C1CCN(C)CC1 [compound 674, 5-cyclopropyl-N-((2S,4S)-2-methyl-1-(N-methyl-N-(1-methylpiperidin-4-yl)sulfamoyl)piperidin-4-yl)isoxazole-3-carboxamide]

Structure (SMILES): O=C(N[C@H]1C[C@H]2CC[C@@H](C1)N2S(=O)(=O)[C@@H]1CCCCNC1)c1cc(C2CC2)on1 [compound 878, N-((1R,3R,5S)-8-(((R)-azepan-3-yl)sulfonyl)-8-azabicyclo[3.2.1]octan-3-yl)-5-cyclopropylisoxazole-3-carboxamide]
pIC50 (SMYD3 [1]; read-out: SMYD3 Cell IC50*): 6.62
pIC50 (SMYD3 [2]; read-out: SMYD3 Biochem IC50*): 8.00

Structure (SMILES): O=C(N[C@H]1C[C@H]2CC[C@@H](C1)N2S(=O)(=O)CC1CCNCC1)c1cc(C2CC2)on1 [compound 526, 5-cyclopropyl-N-((1R,3r,5S)-8-((piperidin-4-ylmethyl)sulfonyl)-8-azabicyclo[3.2.1]octan-3-yl)isoxazole-3-carboxamide]
pIC50 (SMYD3 [1]; Table 1A, IC50 values are an average of n = 1 to n = 50, read-out: SMYD3 Cell IC50): 7.82
pIC50 (SMYD3 [2]; Table 1A, IC50 values are an average of n = 1 to n = 50, read-out: SMYD3 Biochem IC50): 9.00

pIC50 (SMYD3 [1]; [7]): 6.80
pIC50 (SMYD3 [2]; [8]): 7.98
Structure (SMILES): CC[C@H]1CN(S(=O)(=O)N2CC[C@H](NC(=O)c3cc(C4CC4)on3)C[C@@H]2C)CCN1 [compound 584, 5-cyclopropyl-N-((2S,4S)-1-(((S)-3-ethylpiperazin-1-yl)sulfonyl)-2-methylpiperidin-4-yl)isoxazole-3-carboxamide]

Structure (SMILES): O=C(N[C@H]1C[C@H]2CC[C@@H](C1)N2S(=O)(=O)[C@H]1CC[C@H](NCCN2CCOCC2)CC1)c1cc(C2CC2)on1 [compound 859, 5-cyclopropyl-N-((1R,3R,5S)-8-(((1r,4R)-4-((2-morpholinoethyl)amino)cyclohexyl)sulfonyl)-8-azabicyclo[3.2.1]octan-3-yl)isoxazole-3-carboxamide]
pIC50 (SMYD3 [1]; read-out: SMYD3 Cell IC50*): 6.68
pIC50 (SMYD3 [2]; read-out: SMYD3 Biochem IC50*): 8.13

pIC50 (SMYD3 [1]; [7]): 6.84
pIC50 (SMYD3 [2]; [8]): 8.00
Structure (SMILES): CC(C)NC1CCN(S(=O)(=O)N2CC[C@H](NC(=O)c3cc(C4CC4)on3)C[C@@H]2C)CC1 [compound 581, 5-cyclopropyl-N-((2S,4S)-1-((4-(isopropylamino)piperidin-1-yl)sulfonyl)-2-methylpiperidin-4-yl)isoxazole-3-carboxamide]

IC50 (SMYD3 [1]): 4.58 µM
IC50 (SMYD3 [2]): 2.36 µM
Structure (SMILES): C[C@@H]1C[C@H](NC(=O)c2cc(C3CC3)on2)CCN1S(=O)(=O)c1ccc(NCCN2CCOCC2)nc1 [compound 459, 5-cyclopropyl-N-((2R,4R)-2-methyl-1-((6-((2-morpholinoethyl)amino)pyridin-3-yl)sulfonyl)piperidin-4-yl)isoxazole-3-carboxamide]

pIC50 (SMYD3 [1]; [7]): 6.49
pIC50 (SMYD3 [2]; [8]): 8.21
Structure (SMILES): C[C@H]1C[C@@H](NC(=O)c2cc(C3CC3)on2)CCN1S(=O)(=O)CCCNCc1ccc(C(F)(F)F)cc1 [compound 566, 5-cyclopropyl-N-((2S,4S)-2-methyl-1-((3-((4-(trifluoromethyl)benzyl)amino)propyl)sulfonyl)piperidin-4-yl)isoxazole-3-carboxamide]
